Measurements taken from ChEMBL document CHEMBL3885881, “DrugMatrix”.

Organism: Rattus norvegicus
Assay: DrugMatrix - Regimen: Daily Repeat
Type: toxicity, organism-based, Sprague-Dawley
Design: regimen Daily Repeat, gender Male, age 6-8 weeks
Details: in vivo, po, route oral GAVAGE, […]; for CHLORIDE / CHOLESTEROL / CREATINE PHOSPHOKINASE / CREATININE / LACTATE DEHYDROGENASE / LIPASE / PHOSPHORUS / POTASSIUM / SODIUM / TOTAL BILIRUBIN / URIC ACID / ALANINE AMINOTRANSFERASE / ALBUMIN / ALKALINE PHOSPHATASE / ASPARTATE AMINOTRANSFERASE / BLOOD UREA NITROGEN / CARBON DIOXIDE: tissue Plasma; for ABSOLUTE BASOPHIL / ABSOLUTE EOSINOPHIL / ABSOLUTE LYMPHOCYTE / ABSOLUTE MONOCYTE / ABSOLUTE SEGMENTED NEUTROPHIL / BASOPHIL / EOSINOPHIL / ERYTHROCYTE COUNT / HEMATOCRIT / HEMOGLOBIN / LEUKOCYTE COUNT / LYMPHOCYTE / MEAN CORPUSCULAR HEMOGLOBIN / MEAN CORPUSCULAR HEMOGLOBIN CONCENTRATION / MEAN CORPUSCULAR VOLUME / NEUTROPHIL / NUCLEATED RED BLOOD CELLS / PLATELET COUNT: tissue Blood
[1] = 10 mg/kg, 120 h, dose level High, time 5 day
[2] = 72 h, dose 3.5 mg/Kg, dose level Low, time 3 day
[3] = 120 h, dose 3.5 mg/Kg, dose level High, time 5 day
[4] = 120 h, dose 3.5 mg/Kg, dose level Low, time 5 day
[5] = dose 3.5 mg/Kg, dose level High, time 28 day

O=C(O)Cc1ccccc1Nc1c(Cl)cccc1Cl [DICLOFENAC]
CHLORIDE [1]: 99 MEQ/L
CHOLESTEROL [1]: 69.33 mg/dL
CREATINE PHOSPHOKINASE [1]: 210.67 u/L
CREATININE [1]: 0.1 mg/dL
LACTATE DEHYDROGENASE [1]: 77.33 u/L
LIPASE [1]: 9 u/L
PHOSPHORUS [1]: 9.63 mg/dL
POTASSIUM [1]: 5.24 MEQ/L
SODIUM [1]: 140.7 MEQ/L
TOTAL BILIRUBIN [1]: 0.1 mg/dL
URIC ACID [1]: 0.57 mg/dL
ABSOLUTE BASOPHIL [2]: 0 CELLS/uL
ABSOLUTE EOSINOPHIL [2]: 99.33 CELLS/uL
ABSOLUTE LYMPHOCYTE [2]: 11383.33 CELLS/uL
ABSOLUTE MONOCYTE [2]: 144 CELLS/uL
ABSOLUTE SEGMENTED NEUTROPHIL [2]: 540 CELLS/uL
BASOPHIL [2]: 0%
EOSINOPHIL [2]: 0.67%
ERYTHROCYTE COUNT [2]: 5.83 x10E6/uL
HEMATOCRIT [2]: 36.37%
HEMOGLOBIN [2]: 14 G/DL
LEUKOCYTE COUNT [2]: 12.17 x10E3/uL
LYMPHOCYTE [2]: 92.67%
MEAN CORPUSCULAR HEMOGLOBIN [2]: 24.03 pg
MEAN CORPUSCULAR HEMOGLOBIN CONCENTRATION [2]: 38.47 G/DL
MEAN CORPUSCULAR VOLUME [2]: 62.37 fL
NEUTROPHIL [2]: 5.33%
NUCLEATED RED BLOOD CELLS [2]: 0 /100WBC
PLATELET COUNT [2]: 741.67 x10E3/uL
ALANINE AMINOTRANSFERASE [2]: 65.67 u/L
ALBUMIN [2]: 4.03 G/DL
ALKALINE PHOSPHATASE [2]: 385.67 u/L
ASPARTATE AMINOTRANSFERASE [2]: 76.33 u/L
BLOOD UREA NITROGEN [2]: 14 mg/dL
CARBON DIOXIDE [2]: 34 mmol/L
CHLORIDE [2]: 101 MEQ/L
CHOLESTEROL [2]: 82.33 mg/dL
CREATINE PHOSPHOKINASE [2]: 146 u/L
CREATININE [2]: 0.13 mg/dL
LACTATE DEHYDROGENASE [2]: 92.67 u/L
LIPASE [2]: 12.33 u/L
PHOSPHORUS [2]: 9.37 mg/dL
POTASSIUM [2]: 5.57 MEQ/L
SODIUM [2]: 145.37 MEQ/L
TOTAL BILIRUBIN [2]: 0.2 mg/dL
URIC ACID [2]: 0.93 mg/dL
BASOPHIL [3]: 0.32%
EOSINOPHIL [3]: 0.48%
ERYTHROCYTE COUNT [3]: 7.46 x10E6/uL
HEMATOCRIT [3]: 47.98%
HEMOGLOBIN [3]: 15.12 G/DL
LEUKOCYTE COUNT [3]: 9.78 x10E3/uL
LYMPHOCYTE [3]: 81.22%
MEAN CORPUSCULAR HEMOGLOBIN [3]: 20.28 pg
MEAN CORPUSCULAR HEMOGLOBIN CONCENTRATION [3]: 31.52 G/DL
MEAN CORPUSCULAR VOLUME [3]: 64.32 fL
NEUTROPHIL [3]: 15.22%
PLATELET COUNT [3]: 1323.2 x10E3/uL
ABSOLUTE BASOPHIL [4]: 0 CELLS/uL
ABSOLUTE EOSINOPHIL [4]: 66 CELLS/uL
ABSOLUTE LYMPHOCYTE [4]: 7679.67 CELLS/uL
ABSOLUTE MONOCYTE [4]: 26 CELLS/uL
ABSOLUTE SEGMENTED NEUTROPHIL [4]: 795 CELLS/uL
BASOPHIL [4]: 0%
EOSINOPHIL [4]: 0.67%
ERYTHROCYTE COUNT [4]: 5.41 x10E6/uL
HEMATOCRIT [4]: 32.77%
HEMOGLOBIN [4]: 13.13 G/DL
LEUKOCYTE COUNT [4]: 8.57 x10E3/uL
LYMPHOCYTE [4]: 90%
MEAN CORPUSCULAR HEMOGLOBIN [4]: 24.33 pg
MEAN CORPUSCULAR HEMOGLOBIN CONCENTRATION [4]: 40.1 G/DL
MEAN CORPUSCULAR VOLUME [4]: 60.7 fL
NEUTROPHIL [4]: 9%
NUCLEATED RED BLOOD CELLS [4]: 0.33 /100WBC
PLATELET COUNT [4]: 1098.67 x10E3/uL
ALANINE AMINOTRANSFERASE [3]: 32 u/L
ALBUMIN [3]: 3.72 G/DL
ALKALINE PHOSPHATASE [3]: 340 u/L
ASPARTATE AMINOTRANSFERASE [3]: 77.6 u/L
BLOOD UREA NITROGEN [3]: 6.8 mg/dL
CHLORIDE [3]: 110 MEQ/L
CHOLESTEROL [3]: 66.4 mg/dL
CREATINE PHOSPHOKINASE [3]: 178.25 u/L
CREATININE [3]: 0.26 mg/dL
PHOSPHORUS [3]: 13.9 mg/dL
POTASSIUM [3]: 6.42 MEQ/L
SODIUM [3]: 150.8 MEQ/L
TOTAL BILIRUBIN [3]: 0.16 mg/dL
ALANINE AMINOTRANSFERASE [4]: 70.33 u/L
ALBUMIN [4]: 4 G/DL
ALKALINE PHOSPHATASE [4]: 422.67 u/L
ASPARTATE AMINOTRANSFERASE [4]: 77.67 u/L
CARBON DIOXIDE [4]: 32 mmol/L
CHLORIDE [4]: 99.5 MEQ/L
CHOLESTEROL [4]: 58.67 mg/dL
CREATININE [4]: 0.13 mg/dL
LACTATE DEHYDROGENASE [4]: 79 u/L
LIPASE [4]: 12.33 u/L
PHOSPHORUS [4]: 9.27 mg/dL
POTASSIUM [4]: 5.62 MEQ/L
SODIUM [4]: 142.7 MEQ/L
TOTAL BILIRUBIN [4]: 0.2 mg/dL
URIC ACID [4]: 0.5 mg/dL
BASOPHIL [5]: 0.51%
EOSINOPHIL [5]: 0.62%
ERYTHROCYTE COUNT [5]: 8.14 x10E6/uL
HEMATOCRIT [5]: 48.9%
HEMOGLOBIN [5]: 15.9 G/DL
LEUKOCYTE COUNT [5]: 10.63 x10E3/uL
LYMPHOCYTE [5]: 82.51%
MEAN CORPUSCULAR HEMOGLOBIN [5]: 19.56 pg
MEAN CORPUSCULAR HEMOGLOBIN CONCENTRATION [5]: 32.5 G/DL
MEAN CORPUSCULAR VOLUME [5]: 60.18 fL
NEUTROPHIL [5]: 13.48%
PLATELET COUNT [5]: 1264.5 x10E3/uL
ALANINE AMINOTRANSFERASE [5]: 29.7 u/L
ALBUMIN [5]: 3.93 G/DL
ALKALINE PHOSPHATASE [5]: 205 u/L
ASPARTATE AMINOTRANSFERASE [5]: 68.5 u/L
BLOOD UREA NITROGEN [5]: 12.1 mg/dL
CHLORIDE [5]: 109.6 MEQ/L
CHOLESTEROL [5]: 55.2 mg/dL
CREATINE PHOSPHOKINASE [5]: 206.4 u/L
CREATININE [5]: 0.51 mg/dL
PHOSPHORUS [5]: 11.24 mg/dL
POTASSIUM [5]: 6.38 MEQ/L
SODIUM [5]: 154.6 MEQ/L
TOTAL BILIRUBIN [5]: 0.21 mg/dL
